Reference: paper PMC6471485, “Selective Inhibitors of a Human Prolyl Hydroxylase (OGFOD1) Involved in Ribosomal Decoding” (Chemistry (Weinheim an Der Bergstrasse, Germany), 2019)
“Also recorded” adds a separate entry of the source.

Key:
OGFOD1 = target: T1, OGFOD1 (Homo sapiens, UniProt Q8N543); assay: wLOGSY NMR binding experiment with OGFOD1; conditions: 120 µM inhibitor, 15 µM OGFOD1
T1 sequence (Q8N543 1-542): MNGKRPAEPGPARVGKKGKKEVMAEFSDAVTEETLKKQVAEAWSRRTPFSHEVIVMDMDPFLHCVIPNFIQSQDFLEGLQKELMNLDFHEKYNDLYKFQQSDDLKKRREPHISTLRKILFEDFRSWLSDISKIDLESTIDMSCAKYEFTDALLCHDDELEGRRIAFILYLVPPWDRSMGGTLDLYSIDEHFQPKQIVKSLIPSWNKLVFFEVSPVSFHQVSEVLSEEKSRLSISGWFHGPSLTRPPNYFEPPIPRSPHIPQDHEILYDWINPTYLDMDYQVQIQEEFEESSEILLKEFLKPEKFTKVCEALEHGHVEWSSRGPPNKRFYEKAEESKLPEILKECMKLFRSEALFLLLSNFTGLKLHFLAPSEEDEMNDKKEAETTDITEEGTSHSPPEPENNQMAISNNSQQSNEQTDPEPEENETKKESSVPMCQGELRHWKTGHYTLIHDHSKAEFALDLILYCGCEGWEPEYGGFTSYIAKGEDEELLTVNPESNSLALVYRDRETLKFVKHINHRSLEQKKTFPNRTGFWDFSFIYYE
Protocol: total echo time of 40 ms, a relaxation delay of 2 s, with 256 scans. Water suppression was achieved by presaturation. Samples contained 30 µM apo-PHD2181-426 or OGFOD1, supplemented with 60 µM Zn(II), 30 µM of inhibitor, all in 50 mM Tris-d11, pH 7.5, 10 % D2O, […]
wLOGSY Binding Experiments: For water-ligand observed gradient spectroscopy (wLOGSY) analyses, typical experimental parameters were the following: mixing time, 1 s; relaxation delay, 2 s; number of transients, 512. Solvent excitation was achieved using a 16-ms 180° selective rectangular shape pulse with 1,000 points (Squa100.1000) set at the H2O frequency.
Water suppression was achieved by a 2-ms sinc pulse (Sinc1.1000) at the H2O frequency.
Samples contained 5-fold molar excess inhibitor:protein as detailed in the figure legends; all analyses were in 50 mM Tris-d11, pH 7.5, 10 % D2O, 90 % H2O supplemented with 60 µM […]
Competition Experiments by 2OG Displacement: 2OG displacement assays[12] were performed using CPMG-edited 1H spectra. The PROJECT-CPMG sequence was applied as described by Aguilar et al.[11] The standard experimental parameters used were a total echo time of 40 ms, a relaxation delay of 2 s, with 160 scans. Water suppression was achieved by presaturation. The 2OG methylene resonance at 2.35 ppm was monitored. The percentage 2OG displacement was […]
% 2OG displacement = !2OG%!2OG(0) ×100 […]

MDR1-MDCK = MDR1-MDCK in vitro permeability assay (Cyprotex); format: in vitro ADME; conditions: for cell permeability, in words: MDR1-MDCK; for predicted blood-brain barrier permeability, in words: prediction from MDR1-MDCK assay
Protocol: (§1) supplemented with 80 µM Zn(II), 70 µM of inhibitor, all in 50 mM Tris-d11, pH 7.5, 10 % D2O, […]
(§2) Cell Culture and Immunoblotting
(§3) HeLa cells were cultured in DMEM media supplemented with 10 % fetal bovine serum, 4 mM L-glutamine, 100 U/mL penicillin, and 100 µg/mL streptomycin. Cells were treated with the indicated compounds, prepared in 1% DMSO, for 5 h. Following a PBS buffer rinse, cells were lysed in urea/SDS buffer supplemented with 1 mM dithiothreitol. Cell extracts were analyzed by SDS-PAGE, electroblotted onto PVDF membranes (Millipore) and probed with anti-HIF-1α antibody (clone 54, BD Transduction Laboratories) at 1:1000 dilution for 1 h at room temperature. The HRP-conjugated secondary antibody was then applied at room temperature for 1 h. Target proteins were detected with SuperSignal Chemiluminescent […]
(§4) ADMET in vitro Predictors
(§5) S9 liver microsome stability assays and MDCK-MDR1 efflux assays were carried out for CCT3 and CCT4 by Cyprotex (UK). Additional details are provided later in the Supporting […]
(§6) The solubility and metabolic stability of CCT3 and CCT4 was preliminarily evaluated using a S9 liver microsome assay (Cyprotex, UK). According to the assay, CCT3 and CCT4 had […]
(§7) respectively, and are thus classified as having low clearance (< 8.6 µL/min/mg protein).
(§8) The cell permeability of CCT3 and CCT4 were evaluated using an MDR1-MDCK in vitro […]
(§9) able to penetrate the blood-brain barrier. The permeability coefficients were determined to be

[1] = MDR1-MDCK in vitro permeability assay (Cyprotex); format: in vitro ADME; conditions: dog; MDR1-MDCK; read-out: permeability coefficient
Protocol: as §1, §2, §3, §4, §5, §6, §7, §8, §9

**Q.** Which results are given for Cn1c(O)c(C(=O)CCc2ccccc2)c(=O)n(C)c1=O [compound 26]?
**A.** binding to OGFOD1 by wLOGSY NMR, in words (OGFOD1): indicates a binding interaction; cell permeability, in words (MDR1-MDCK): good cell permeability properties; predicted blood-brain barrier permeability, in words (MDR1-MDCK; listed as CCT3): brain uptake is likely; also recorded: predicted to be permeable to the blood brain barrier; Papp [1]: 58.5 ×10⁻⁶ cm/s

**Q.** Which “binding to OGFOD1 by wLOGSY NMR, in words” value (OGFOD1) does the source give for Cn1c(O)c(C(=O)CCc2cccs2)c(=O)n(C)c1=O [compound 42] here?
**A.** The value was “indicates a binding interaction”.

**Q.** And the “cell permeability, in words” value (MDR1-MDCK)?
**A.** Its value is “good cell permeability properties”.

**Q.** And the “predicted blood-brain barrier permeability, in words” value (MDR1-MDCK; listed as CCT4)?
**A.** The value was “brain uptake is likely; also recorded: predicted to be permeable to the blood brain barrier”.

**Q.** What about the Papp [1] of the same compound?
**A.** The Papp was 62.7 ×10⁻⁶ cm/s.
